The values below come from patent US20250066358A1, “Inhibitors of Menin-MLL Interaction” (Bala Therapeutics, Inc., priority 2021, published 2025).

One data set concerns MV4-11. Kind of data set: MV4-11 Cellular Growth Inhibition Assay (CellTiter-Glo). It is filed as cell-based. The settings on record: Homo sapiens, 168 h, MV4-11 cells, 7 days of incubation. Here is the method:
(§1) HEK293 (Institute of Cytology Russian Academy of Science), MV4-11 (ATCC, CRL-9591), MOLM-13 (AcceGen, ABC-TC517S) were seeded at a density of 500 cells per well (HEK293) and 2000 cells per well (MV4-11, MOLM-13) in a 384-well clear bottom plate (Greiner Cat #781090) in 45 μl total volume of DMEM (PanEco, Cat #C420, Russia) or RPMI (PanEco, Cat #C330, Russia) with 10% FBS(HyClone Cat #SV30160.03). HEK293 were allowed to adhere overnight at 37° C., 5% CO2. 500× compounds solutions in DMSO (Sigma Cat #D2650) were prepared into Cmpnds plate (Diamond Well Plate, Axigen, Cat #P-384-120 SQ-C—S) and DMSO only control was included. 1 μl of 500× compounds (Cmpnds plate) was added to 49 μl of culture medium into Dilution plate (Diamond Well Plate, Axigen, Cat #P-384-120 SQ-C—S), mixed and then 5 μl of 10× compounds solutions were transferred to cells followed by centrifugation at 100 g for 1 min. Final DMSO concentration was 0.2%. After 3 days of incubation, 10 μl of 1× compounds were added to cells. After 7 days of incubation, 12 μl of CellTiter-Glo (Promega, CAT #G7572) were added to the cells, plate was centrifuged at 100 g for 1 min and luminescence signal was measured using Microplate Reader (CLARIOStar).

Data set [1] addresses T1, recombinant MEN1 protein and fluorescein-labeled MLL4-43 peptide (Homo sapiens, UniProt O00255).
T1 construct: purchased Creativebiomart MEN1-35H
T1 sequence (O00255 1-610): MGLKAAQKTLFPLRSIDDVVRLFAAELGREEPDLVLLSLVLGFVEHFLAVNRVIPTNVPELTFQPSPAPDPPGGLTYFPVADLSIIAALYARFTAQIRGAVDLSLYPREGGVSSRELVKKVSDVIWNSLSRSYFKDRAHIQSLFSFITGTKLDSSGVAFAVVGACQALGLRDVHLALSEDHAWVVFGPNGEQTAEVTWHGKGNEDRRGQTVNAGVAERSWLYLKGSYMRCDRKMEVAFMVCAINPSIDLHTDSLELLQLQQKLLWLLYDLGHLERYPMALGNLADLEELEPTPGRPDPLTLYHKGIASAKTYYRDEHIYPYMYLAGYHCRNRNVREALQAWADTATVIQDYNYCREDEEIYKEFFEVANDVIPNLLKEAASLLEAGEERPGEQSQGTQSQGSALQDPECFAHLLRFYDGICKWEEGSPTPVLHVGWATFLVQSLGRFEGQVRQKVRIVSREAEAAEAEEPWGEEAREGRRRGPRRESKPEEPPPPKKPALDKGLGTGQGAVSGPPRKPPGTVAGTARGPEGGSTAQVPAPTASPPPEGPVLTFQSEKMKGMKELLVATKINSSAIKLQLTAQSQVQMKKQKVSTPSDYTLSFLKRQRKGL
Kind of data set: Primary fluorescence polarization assay of MEN1 / MLL4-43 interaction inhibition. It is filed as binding. The settings on record: MEN1 10 nM, MLL4-43 0.5 nM, 1 hour at room temperature. Here is the method: Compound activity was determined using recombinant MEN1 protein (Creativebiomart, Cat #MEN1-35H) and a custom fluorescein-labeled MLL4-43 peptide (Eton Bioscience Inc.). Interaction between MEN1 and MLL4-43 in the presence of compounds was determined by fluorescence polarization assay using a Microplate Reader ClarioStar Plus. The reaction was carried out in assay buffer (50 mM TRIS-HCl PH 7.4-7.6, 50 mM NaCl, 1 mM DTT, 0.1 mg/ml BSA). The compounds were dispensed on a 384 well Diamond Well Plate (Axigen, Cat #P-384-120 SQ-C—S) using the Biomek FX liquid handling system at 100× solutions of compounds in DMSO. 2× MEN1 mix (final concentration of MEN1 10 nM) was prepared in Assay buffer and 10 μl of mixture per well was added into 384w white Reaction plate with NBS(Corning, Cat #4513). 10 μl of Assay buffer w/o MENI was used for negative control. Plates were centrifuged for 1 min at 100 g. Next step the Compounds were added to Reaction plate using Biomek station via following steps: 3 μl of 100× compounds (in DMSO) were mixed thoroughly with 27 μl Assay Buffer, then 2 μl of this mixture was added to Reaction plate with 10 μl of MENI mix. Plates were centrifuged for 1 min at 100 g and incubated for 20 min at room temperature. Next 8 μL of MLL4-43 peptide per well was added to final concentration of MLL 0.5 nM. Plates were incubated for 1 hour at room temperature. Then fluorescence polarization was measured using Microplate Reader.

The nature of data set [2]: HEK293 Cellular Growth Inhibition Assay (CellTiter-Glo). It counts as cell-based. The settings on record: human, HEK293 cells, 7 days of incubation. As to the method:
as §1
Background: Cellular ATP, detected with luciferase, serves as a proxy for viable cell number.

The next data set concerns MOLM-13. In words: MOLM-13 Cellular Growth Inhibition Assay (CellTiter-Glo). It is filed as cell-based. The settings on record: Homo sapiens, 168 h, MOLM-13 cells, 7 days of incubation. Here is the method: as §1

For `CCS(=O)(=O)N[C@H]1CC[C@H](CN2CCC3(CC2)CN(c2ncnc4ccc(CCc5ccncc5)cc24)C3)CC1` [Compound 48, N-((1R,4R)-4-((2-(6-(2-(pyridin-4-yl)ethyl)quinazolin-4-yl)-2,7-diazaspiro[3.5]nonan-7-yl)methyl)cyclohexyl)ethanesulfonamide], the CC50 (usually the concentration at which the toxic effect on the cells reaches its halfway point) in the data set with MV4-11 is more than 10 µM; with MOLM-13 it was more than 20 µM. Further, in data set [1], the EC50 (usually the concentration that produces a half-maximal response) fell in the range of 500 to 1000 nM. The CC50 at 7 days in data set [2] fell in the range of 30 to 50 µM.
For the molecule `CCS(=O)(=O)N[C@H]1CC[C@H](CN2CCC3(CC2)CCN(c2ncnc4ccc(CC(F)(F)F)cc24)CC3)CC1` [Compound 3, N-((1R,4R)-4-((9-(6-(2,2,2-trifluoroethyl)quinazolin-4-yl)-3,9-diazaspiro[5.5]undecan-3-yl)methyl)cyclohexyl)ethanesulfonamide], the CC50 fell in the range of 5 to 10 µM with MV4-11 and 10 to 20 µM in the data set on MOLM-13. Moreover, the EC50 in data set [1] was in the range of 500 to 1000 nM. Further, in data set [2], the CC50 at 7 days was in the range of 5 to 15 µM.
On the same counts, the results for `CCS(=O)(=O)Nc1cccc(CN2CC3(CCN(c4ncnc5ccc(CC(F)(F)F)cc45)CC3)C2)c1` [Compound 44, N-(3-((7-(6-(2,2,2-trifluoroethyl)quinazolin-4-yl)-2,7-diazaspiro[3.5]nonan-2-yl)methyl)phenyl)ethanesulfonamide] are 1 to 2.5 µM, 5 to 10 µM, 500 to 1000 nM and 5 to 15 µM.
The like results for `FC(F)(F)Cc1ccc2ncnc(N3CC4(CCN(Cc5ccc6cc[nH]c6c5)CC4)C3)c2c1` [Compound 89, 4-(7-((1H-indol-6-yl)methyl)-2,7-diazaspiro[3.5]nonan-2-yl)-6-(2,2,2-trifluoroethyl)quinazoline] were, in that order, not above 1 µM, 1 to 5 µM, not above 75 nM and not above 5 µM.
The like results for `CCS(=O)(=O)Nc1ccc(CN2CCC3(CC2)CCN(c2ncnc4ccc(CC(F)(F)F)cc24)CC3)cc1` [Compound 1, N-[4-[[3-[6-(2,2,2-trifluoroethyl)quinazolin-4-y1]-3,9-diazaspiro[5.5]undecan-9-yl]methyl]phenyl]ethanesulfonamide] were, in that order, 2.5 to 5 µM, 5 to 10 µM, 1000 to 5000 nM and 5 to 15 µM.
Take `CCS(=O)(=O)Nc1ccc(CN2CC3(CCN(c4ncnc5ccc(CC(F)(F)F)cc45)CC3)C2)cc1` [Compound 43, N-(4-((7-(6-(2,2,2-trifluoroethyl)quinazolin-4-yl)-2,7-diazaspiro[3.5]nonan-2-yl)methyl)phenyl)ethanesulfonamide]: the CC50 in the data set with MV4-11 and with MOLM-13 was 5 to 10 µM each time. For the same molecule, the EC50 in data set [1] lay in the range of 1000 to 5000 nM. This molecule came in with a CC50 at 7 days in data set [2] of 15 to 30 µM.
Consider `CCS(=O)(=O)Nc1ccc(CN2CCC3(CC2)CN(c2ncnc4ccc(CCc5ccncc5)cc24)C3)cc1` [Compound 49, N-(4-((2-(6-(2-(pyridin-4-yl)ethyl)quinazolin-4-yl)-2,7-diazaspiro[3.5]nonan-7-yl)methyl)phenyl)ethanesulfonamide], for which the values for the CC50 in the data set on MV4-11 and with MOLM-13 were 5 to 10 µM and 10 to 20 µM, respectively. Moreover, the EC50 in data set [1] is 1000 to 5000 nM. Further, the 50% cytotoxic concentration (CC50) at 7 days in data set [2] was in the range of 30 to 50 µM.
The like results for `Nc1ccc(CN2CCC3(CC2)CN(c2ncnc4ccc(CC(F)(F)F)cc24)C3)cc1C(=O)NCCN1CCOCC1` [Compound 91, 2-amino-N-(2-morpholinoethyl)-5-((2-(6-(2,2,2-trifluoroethyl)quinazolin-4-yl)-2,7-diazaspiro[3.5]nonan-7-yl)methyl)benzamide] were, in that order, 2.5 to 5 µM, 10 to 20 µM, 1000 to 5000 nM and 5 to 15 µM.
The like results for `CCS(=O)(=O)Nc1ccc(CN2CCC3(CC2)CN(c2ncnc4ccc(CC(F)(F)F)cc24)C3)cc1` [Compound 7, N-(4-((2-(6-(2,2,2-trifluoroethyl)quinazolin-4-yl)-2,7-diazaspiro[3.5]nonan-7-yl)methyl)phenyl)ethanesulfonamide] were, in that order, 1 to 2.5 µM, 1 to 5 µM, not above 75 nM and 5 to 15 µM.
For `CCS(=O)(=O)N[C@H]1CC[C@H](CN2CCC3(CC2)CN(c2ncnc4ccc(C#Cc5ccccc5)cc24)C3)CC1` [Compound 53, N-((1R,4R)-4-((2-(6-(phenylethynyl)quinazolin-4-yl)-2,7-diazaspiro[3.5]nonan-7-yl)methyl)cyclohexyl)ethanesulfonamide], the CC50 was in the range of 2.5 to 5 µM in the data set on MV4-11 and 5 to 10 µM in the data set with MOLM-13. For the same molecule, in data set [1], the EC50 was more than 5000 nM. Moreover, the CC50 at 7 days in data set [2] was not above 5 µM.
For the molecule `CCS(=O)(=O)N1Cc2ccc(CN3CCC4(CC3)CN(c3ncnc5ccc(CC(F)(F)F)cc35)C4)cc2C1` [Compound 94, 4-(7-((2-(ethylsulfonyl)isoindolin-5-yl)methyl)-2,7-diazaspiro[3.5]nonan-2-yl)-6-(2,2,2-trifluoroethyl)quinazoline], the CC50 in the data set with MV4-11 lay within 2.5 to 5 µM; in the data set on MOLM-13 it was 5 to 10 µM. Further, the EC50 in data set [1] lay in the range of 75 to 500 nM. In data set [2], this molecule came in with a CC50 at 7 days of 5 to 15 µM.
Take `CCS(=O)(=O)N[C@H]1CC[C@H](Cn2cc(CNc3ncnc4ccc(CC(F)(F)F)cc34)nn2)CC1` [Compound 69, N-((1R,4R)-4-((4-(((6-(2,2,2-trifluoroethyl)quinazolin-4-yl)amino)methyl)-1H-1,2,3-triazol-1-yl)methyl)cyclohexyl)ethanesulfonamide]: the values for the CC50 in the data set with MV4-11 and in the data set on MOLM-13 were more than 10 µM and 5 to 10 µM, respectively. Further, the EC50 in data set [1] was more than 5000 nM. The same molecule gave a CC50 at 7 days in data set [2] of 30 to 50 µM.
The like results for `CCS(=O)(=O)Nc1ccc(CN2CCC(Nc3ncnc4ccc(CC(F)(F)F)cc34)CC2)cc1` [Compound 36, N-(4-((4-((6-(2,2,2-trifluoroethyl)quinazolin-4-yl)amino)piperidin-1-yl)methyl)phenyl)ethanesulfonamide] were, in that order, 5 to 10 µM, 5 to 10 µM, 1000 to 5000 nM and 15 to 30 µM.
The like results for `FC(F)(F)Cc1ccc2ncnc(N3CC4(CCN(Cc5cccc6[nH]ccc56)CC4)C3)c2c1` [Compound 83, 4-(7-((1H-indol-4-yl)methyl)-2,7-diazaspiro[3.5]nonan-2-yl)-6-(2,2,2-trifluoroethyl)quinazoline] were, in that order, 1 to 2.5 µM, 5 to 10 µM, not above 75 nM and 5 to 15 µM.
Consider `CCS(=O)(=O)N[C@H]1CC[C@H](CNc2ccc(CN3CCC4(CC3)CN(c3ncnc5ccc(CC(F)(F)F)cc35)C4)cc2)CC1` [Compound 79, N-((1R,4R)-4-(((4-((2-(6-(2,2,2-trifluoroethyl)quinazolin-4-yl)-2,7-diazaspiro[3.5]nonan-7-yl)methyl)phenyl)amino)methyl)cyclohexyl)ethanesulfonamide], for which the CC50 is more than 10 µM in the data set with MV4-11 and 1 to 5 µM in the data set on MOLM-13. Moreover, in data set [1], the EC50 lay in the range of 75 to 500 nM. This molecule also displayed a CC50 at 7 days in data set [2] not above 5 µM.
